Assay: clinical
Conditions: human, in vivo

Cmax: 20.7 ng/mL | Tmax: 45 min
Compound: CN(C)CCc1c[nH]c2ccc(Cn3cncn3)cc12 [Rizatriptan, rizatriptan]

Source: patent US20250367121A1, “DOSAGE FORMS COMPRISING ACTIVE PHARMACEUTICAL INGREDIENTS” (AXSOME THERAPEUTICS, INC., priority 2018, published 2025)
